Data reported in patent publication US8952024B2, “Herbicidal pyrimidone derivatives” (E I du Pont de Nemours and Company, priority 2009, dated 2015).

Legend:
Assay in all cases: Test B pre-/postemergence plant response
Type in all cases: in vivo
[1] = system: Surinam grass (Brachiaria decumbens)
Procedure, shortened: (§1)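 Greenhouse herbicide screen. Pre- and postemergence (1- to 4-leaf) spray of compound in solvent/surfactant mixture; loam–sand soil for pre, peat/vermiculite medium for post. Visual control rating 0–100 at 13 to 15 days after treatment.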

[2] = system: blackgrass (Alopecurus myosuroides)
Procedure, shortened: as §1

corn (Zea mays) = system: corn (Zea mays)
Procedure, shortened: as §1

[3] = system: downy bromegrass (Bromus tectorum)
Procedure, shortened: as §1

[4] = system: goosegrass (Eleusine indica)
Procedure, shortened: as §1

[5] = system: green foxtail (Setaria viridis)
Procedure, shortened: as §1

[6] = system: johnsongrass (Sorghum halepense)
Procedure, shortened: as §1

kochia (Kochia scoparia) = conditions: for Plant response rating, Kochia: Postemergence
Procedure, shortened: as §1

[7] = system: lambsquarters (Chenopodium album)
Procedure, shortened: as §1

[8] = system: large crabgrass (Digitaria sanguinalis)
Procedure, shortened: as §1

[9] = system: morningglory (Ipomoea coccinea)
Procedure, shortened: as §1

[10] = system: pigweed (Amaranthus retroflexus)
Procedure, shortened: as §1

soybean (Glycine max) = system: soybean (Glycine max)
Procedure, shortened: as §1

[11] = system: velvetleaf (Abutilon theophrasti)
Procedure, shortened: as §1

wild oat (Avena fatua) = system: wild oat (Avena fatua)
Procedure, shortened: as §1

[12] = system: woolly cupgrass (Eriochloa villosa)
Procedure, shortened: as §1

[13] = system: yellow nutsedge (Cyperus esculentus)
Procedure, shortened: as §1

[14] = 62 g ai/ha, postemergence, 0 is no effect, 100 is complete control, 13 to 15 days
[15] = Postemergence, 125 g ai/ha, scale 0 to 100 (0 no effect, 100 complete control)
[16] = Postemergence, 250 g ai/ha, scale 0 to 100 (0 no effect, 100 complete control)
[17] = 31 g ai/ha, postemergence, scale 0 to 100, 0 is no effect, 100 is complete control
[18] = 125 g ai/ha, scale 0 to 100 (0 no effect, 100 complete control)
[19] = Postemergence, 31 g ai/ha, 0 to 100 scale (0 no effect, 100 complete control)
[20] = Postemergence, 250 g ai/ha, scale 0 to 100 (0 no effect, 100 complete control), 13 to 15 days
[21] = Postemergence, 62 g ai/ha, scale 0 to 100 (0 no effect, 100 complete control)
[22] = Preemergence, 31 g ai/ha, scale 0 to 100 (0 no effect, 100 complete control)
[23] = Preemergence, 62 g ai/ha, scale 0 to 100, 0 no effect, 100 complete control
[24] = Preemergence, 125 g ai/ha, scale 0 to 100, 0 no effect, 100 complete control
[25] = Preemergence, 250 g ai/ha, 0 to 100 scale

CCCn1c(-c2cccc(OC)c2)ncc(C(=O)C2=C(O)CCCC2=O)c1=O [Compound 100]
Surinam Grass plant response rating (0 to 100 scale) [1, 14]: 65
Plant response rating, Surinam Grass [1, 15]: 65
Plant response rating, Surinam Grass [1, 16]: 75
Plant response rating, Blackgrass [2, 17]: 0
Blackgrass plant response rating (0 to 100 scale) [2, 14]: 5
Plant response rating, Blackgrass [2, 15]: 10
Plant response rating, Blackgrass [2, 16]: 40
Plant response rating, Corn (corn (Zea mays); [17]): 0
Corn plant response rating (0 to 100 scale) (corn (Zea mays); [14]): 10
Plant response rating, Corn (corn (Zea mays); [15]): 20
Plant response rating, Corn (corn (Zea mays); [16]): 45
Plant response rating, Bromegrass, Downy [3, 17]: 5
Bromegrass, Downy plant response rating (0 to 100 scale) [3, 14]: 10
Plant response rating, Bromegrass, Downy [3, 15]: 15
Plant response rating, Bromegrass, Downy [3, 16]: 35
Plant response rating, Goosegrass [4, 17]: 70
Goosegrass plant response rating (0 to 100 scale) [4, 14]: 70
Plant response rating, Goosegrass [4, 15]: 75
Plant response rating, Goosegrass [4, 16]: 75
Plant response rating, Foxtail, Green [5, 17]: 20
Foxtail, Green plant response rating (0 to 100 scale) [5, 14]: 70
Plant response rating, Foxtail, Green [5, 15]: 80
Plant response rating, Foxtail, Green [5, 16]: 85
Plant response rating, Johnsongrass [6, 17]: 0
Johnsongrass plant response rating (0 to 100 scale) [6, 14]: 5
Plant response rating, Johnsongrass [6, 15]: 10
Plant response rating, Johnsongrass [6, 16]: 25
Kochia plant response rating (0 to 100 scale) (kochia (Kochia scoparia); [14]): 95
Plant response rating, Kochia (kochia (Kochia scoparia); [18]): 98
Plant response rating, Kochia (kochia (Kochia scoparia); 250 g ai/ha, scale 0 to 100 (0 no effect, 100 complete control)): 100
Plant response rating, Lambsquarters [7, 17]: 95
Lambsquarters plant response rating (0 to 100 scale) [7, 14]: 98
Plant response rating, Lambsquarters [7, 15]: 98
Plant response rating, Lambsquarters [7, 16]: 98
Plant response rating, Crabgrass, Large [8, 17]: 55
Crabgrass, Large plant response rating (0 to 100 scale) [8, 14]: 60
Plant response rating, Crabgrass, Large [8, 15]: 75
Plant response rating, Crabgrass, Large [8, 16]: 80
Plant response rating, Morningglory [9, 17]: 60
Morningglory plant response rating (0 to 100 scale) [9, 14]: 100
Plant response rating, Morningglory [9, 15]: 100
Plant response rating, Morningglory [9, 16]: 100
Plant response rating, Pigweed [10, 17]: 90
Pigweed plant response rating (0 to 100 scale) [10, 14]: 98
Plant response rating, Pigweed [10, 15]: 98
Plant response rating, Pigweed [10, 16]: 98
Soybean plant response rating (0 to 100 scale) (soybean (Glycine max); [14]): 98
Plant response rating, Soybean (soybean (Glycine max); [15]): 100
Plant response rating, Soybean (soybean (Glycine max); [16]): 100
Velvetleaf plant response rating (0 to 100 scale) [11, 14]: 70
Plant response rating, Velvetleaf [11, 15]: 70
Plant response rating, Velvetleaf [11, 16]: 85
Plant response rating, Oat, Wild (wild oat (Avena fatua); [17]): 0
Oat, Wild plant response rating (0 to 100 scale) (wild oat (Avena fatua); [14]): 10
Plant response rating, Oat, Wild (wild oat (Avena fatua); [15]): 30
Plant response rating, Oat, Wild (wild oat (Avena fatua); [16]): 30
Cupgrass, Woolly plant response rating (0 to 100 scale) [12, 14]: 65
Plant response rating, Cupgrass, Woolly [12, 15]: 70
Plant response rating, Cupgrass, Woolly [12, 16]: 75
Nutsedge, Yellow plant response rating (0 to 100 scale) [13, 14]: 5
Plant response rating, Nutsedge, Yellow [13, 15]: 15
Plant response rating, Nutsedge, Yellow [13, 16]: 40

CCCc1ncc(C(=O)C2=C(O)CCCC2=O)c(=O)n1-c1ccccc1 [Compound 217]
Plant response rating, Surinam Grass [1, 19]: 70
Plant response rating, Surinam Grass [1, 20]: 95
Plant response rating, Surinam Grass [1, 21]: 80
Plant response rating, Surinam Grass [1, 22]: 45
Plant response rating, Surinam Grass [1, 23]: 75
Plant response rating, Surinam Grass [1, 24]: 85
Surinam Grass plant response rating [1, 25]: 90
Plant response rating, Blackgrass [2, 19]: 0
Plant response rating, Blackgrass [2, 15]: 30
Plant response rating, Blackgrass [2, 20]: 30
Plant response rating, Blackgrass [2, 21]: 5
Plant response rating, Blackgrass [2, 22]: 0
Plant response rating, Blackgrass [2, 23]: 0
Plant response rating, Blackgrass [2, 24]: 0
Blackgrass plant response rating [2, 25]: 0
Plant response rating, Corn (corn (Zea mays); [19]): 0
Plant response rating, Corn (corn (Zea mays); [15]): 25
Plant response rating, Corn (corn (Zea mays); [20]): 35
Plant response rating, Corn (corn (Zea mays); [21]): 10
Plant response rating, Corn (corn (Zea mays); [22]): 0
Plant response rating, Corn (corn (Zea mays); [23]): 0
Plant response rating, Corn (corn (Zea mays); [24]): 0
Corn plant response rating (corn (Zea mays); [25]): 0
Plant response rating, Bromegrass, Downy [3, 19]: 10
Plant response rating, Bromegrass, Downy [3, 15]: 40
Plant response rating, Bromegrass, Downy [3, 20]: 65
Plant response rating, Bromegrass, Downy [3, 21]: 15
Plant response rating, Bromegrass, Downy [3, 22]: 0
Plant response rating, Bromegrass, Downy [3, 23]: 0
Plant response rating, Bromegrass, Downy [3, 24]: 0
Bromegrass, Downy plant response rating [3, 25]: 0
Plant response rating, Goosegrass [4, 19]: 80
Plant response rating, Goosegrass [4, 15]: 85
Plant response rating, Goosegrass [4, 20]: 95
Plant response rating, Goosegrass [4, 21]: 80
Plant response rating, Goosegrass [4, 22]: 95
Plant response rating, Goosegrass [4, 23]: 98
Plant response rating, Goosegrass [4, 24]: 100
Goosegrass plant response rating [4, 25]: 100
Plant response rating, Foxtail, Green [5, 19]: 55
Plant response rating, Foxtail, Green [5, 15]: 85
Plant response rating, Foxtail, Green [5, 20]: 90
Plant response rating, Foxtail, Green [5, 21]: 60
Plant response rating, Foxtail, Green [5, 22]: 0
Plant response rating, Foxtail, Green [5, 23]: 0
Plant response rating, Foxtail, Green [5, 24]: 0
Foxtail, Green plant response rating [5, 25]: 90
Plant response rating, Johnsongrass [6, 19]: 0
Plant response rating, Johnsongrass [6, 15]: 60
Plant response rating, Johnsongrass [6, 20]: 65
Plant response rating, Johnsongrass [6, 21]: 60
Plant response rating, Johnsongrass [6, 22]: 0
Plant response rating, Johnsongrass [6, 23]: 5
Plant response rating, Johnsongrass [6, 24]: 20
Johnsongrass plant response rating [6, 25]: 55
Plant response rating, Kochia (kochia (Kochia scoparia); 31 g ai/ha, 0 to 100 scale (0 no effect, 100 complete control)): 75
Plant response rating, Kochia (kochia (Kochia scoparia); [18]): 100
Plant response rating, Kochia (kochia (Kochia scoparia); 250 g ai/ha, scale 0 to 100 (0 no effect, 100 complete control), 13 to 15 days): 100
Plant response rating, Kochia (kochia (Kochia scoparia); 62 g ai/ha, scale 0 to 100 (0 no effect, 100 complete control)): 98
Plant response rating, Lambsquarters [7, 19]: 90
Plant response rating, Lambsquarters [7, 15]: 100
Plant response rating, Lambsquarters [7, 20]: 100
Plant response rating, Lambsquarters [7, 21]: 100
Plant response rating, Lambsquarters [7, 22]: 95
Plant response rating, Lambsquarters [7, 23]: 100
Plant response rating, Lambsquarters [7, 24]: 100
Lambsquarters plant response rating [7, 25]: 100
Plant response rating, Crabgrass, Large [8, 19]: 80
Plant response rating, Crabgrass, Large [8, 15]: 90
Plant response rating, Crabgrass, Large [8, 20]: 98
Plant response rating, Crabgrass, Large [8, 21]: 85
Plant response rating, Crabgrass, Large [8, 22]: 95
Plant response rating, Crabgrass, Large [8, 23]: 100
Plant response rating, Crabgrass, Large [8, 24]: 100
Crabgrass, Large plant response rating [8, 25]: 100
Plant response rating, Morningglory [9, 19]: 70
Plant response rating, Morningglory [9, 15]: 80
Plant response rating, Morningglory [9, 20]: 80
Plant response rating, Morningglory [9, 21]: 75
Plant response rating, Morningglory [9, 22]: 0
Plant response rating, Morningglory [9, 23]: 0
Plant response rating, Morningglory [9, 24]: 0
Morningglory plant response rating [9, 25]: 0
Plant response rating, Pigweed [10, 19]: 85
Plant response rating, Pigweed [10, 20]: 100
Plant response rating, Pigweed [10, 21]: 100
Plant response rating, Pigweed [10, 22]: 95
Plant response rating, Pigweed [10, 23]: 100
Plant response rating, Pigweed [10, 24]: 100
Pigweed plant response rating [10, 25]: 100
Plant response rating, Soybean (soybean (Glycine max); [19]): 75
Plant response rating, Soybean (soybean (Glycine max); [20]): 98
Plant response rating, Soybean (soybean (Glycine max); [21]): 85
Plant response rating, Soybean (soybean (Glycine max); [22]): 0
Plant response rating, Soybean (soybean (Glycine max); [23]): 0
Plant response rating, Soybean (soybean (Glycine max); [24]): 0
Soybean plant response rating (soybean (Glycine max); [25]): 0
Plant response rating, Velvetleaf [11, 19]: 98
Plant response rating, Velvetleaf [11, 20]: 100
Plant response rating, Velvetleaf [11, 21]: 98
Plant response rating, Velvetleaf [11, 22]: 95
Plant response rating, Velvetleaf [11, 23]: 100
Plant response rating, Velvetleaf [11, 24]: 100
Velvetleaf plant response rating [11, 25]: 100
Plant response rating, Oat, Wild (wild oat (Avena fatua); [19]): 30
Plant response rating, Oat, Wild (wild oat (Avena fatua); [20]): 85
Plant response rating, Oat, Wild (wild oat (Avena fatua); [21]): 40
Plant response rating, Oat, Wild (wild oat (Avena fatua); [22]): 0
Plant response rating, Oat, Wild (wild oat (Avena fatua); [23]): 0
Plant response rating, Oat, Wild (wild oat (Avena fatua); [24]): 0
Oat, Wild plant response rating (wild oat (Avena fatua); [25]): 0
Plant response rating, Cupgrass, Woolly [12, 19]: 25
Plant response rating, Cupgrass, Woolly [12, 15]: 45
Plant response rating, Cupgrass, Woolly [12, 20]: 55
Plant response rating, Cupgrass, Woolly [12, 21]: 45
Plant response rating, Cupgrass, Woolly [12, 22]: 0
Plant response rating, Cupgrass, Woolly [12, 23]: 5
Plant response rating, Cupgrass, Woolly [12, 24]: 65
Cupgrass, Woolly plant response rating [12, 25]: 80
Plant response rating, Nutsedge, Yellow [13, 19]: 10
Plant response rating, Nutsedge, Yellow [13, 15]: 70
Plant response rating, Nutsedge, Yellow [13, 20]: 70
Plant response rating, Nutsedge, Yellow [13, 21]: 60
Plant response rating, Nutsedge, Yellow [13, 22]: 60
Plant response rating, Nutsedge, Yellow [13, 23]: 65
Plant response rating, Nutsedge, Yellow [13, 24]: 70
Nutsedge, Yellow plant response rating [13, 25]: 90
